Test results: US11040028B2, “Penicinotam derivative, preparation method and use thereof” (OCEAN UNIVERSITY OF CHINA, priority 2017, dated 2021)

How the values were obtained:
Format in all cases: cell-based
[1] = system: human dermal fibroblasts CCC-ESF-1; test: Anti-fibrosis activity test: inhibition of proliferation of human dermal fibroblasts CCC-ESF-1 (CCK-8); settings: Fibroblast; human dermal fibroblasts CCC-ESF-1, CCK-8, 48 hours
In short: (§1)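 IC50 values derive from CCK-8 absorbance (450 nm, 2 h reagent incubation) measured after a 48 h exposure to test compounds. Before dosing, cells plated at 2×10^4 cells/mL had attached for 24 h under 5% CO2 at 37° C; triplicate wells per concentration.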

[2] = system: mouse macrophages (RAW264.7); test: Lipopolysaccharide-induced NO secretion in macrophages (Griess); settings: Mus musculus, RAW264.7, 24 h, RAW264.7, LPS 1 μg/ml, a/b isomers given as first/second symbol, read-out: IC50 (μM), inhibition of lipopolysaccharide-induced NO secretion in macrophages
In short: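 Percent inhibition of NO release was measured by Griess absorbance at 548 nm in supernatants. Cells were mouse RAW264.7 macrophages in 10% FBS DMEM, treated with graded compound concentrations and activated by LPS (1 μg/ml) for 24 h.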

[3] = system: human fibrosarcoma cells HT-1080; test: Anti-fibrosis activity test: inhibition of proliferation of human fibrosarcoma cells HT-1080 (CCK-8); settings: Homo sapiens, HT-1080, 48 h, human fibrosarcoma cells HT-1080, CCK-8, 48 hours
In short: as §1

[4] = system: human lung fibroblasts HFL1; test: Anti-fibrosis activity test: inhibition of proliferation of human lung fibroblasts HFL1 (CCK-8); settings: Homo sapiens, HFL1, 48 h, human lung fibroblasts HFL1, CCK-8, 48 hours
In short: as §1

[5] = system: human hepatic stellate cells LX-2; test: Anti-fibrosis activity test: inhibition of proliferation of human hepatic stellate cells LX-2 (CCK-8); settings: Homo sapiens, 48 h, human hepatic stellate cells LX-2, CCK-8, 48 hours
In short: as §1

[6] = system: BHK-21 cells; test: Anti-fibrosis activity test: inhibition of BHK-21 cell proliferation (CCK-8); settings: Mesocricetus auratus, BHK-21, 48 h, CCK-8, 48 hours after administration
In short: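 Proliferation inhibition was read as CCK-8 absorbance at 450 nm (2-hour development) relative to untreated blank, with IC50 fitted from the curve. Before that, adhered cells (2×10^4 cells/mL, 24 hours) had 48 hours' treatment at several concentrations, in triplicate, at 37° C/5% CO2; pirfenidone was the reference.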

[7] = system: cardiac fibroblast RAT-iCell-C002; test: Anti-fibrosis activity test: inhibition of proliferation of cardiac fibroblast RAT-iCell-C002 (CCK-8); settings: Cardiac fibroblast, 48 h, cardiac fibroblast RAT-iCell-C002, CCK-8, 48 hours
In short: as §1

[8] = system: human embryonic lung fibroblast IMR-90; test: Anti-fibrosis activity test: inhibition of proliferation of human embryonic lung fibroblast IMR-90 (CCK-8); settings: human embryonic lung fibroblast IMR-90, CCK-8, 48 hours
In short: as §1

[9] = system: NF-κB; test: Immunological activity test: inhibition of NF-κB activity; settings: initial concentration of 30 μM; a/b isomers given as first/second symbol; read-out: IC50 (μM), inhibitory activity against NF-κB
In short: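 Initial screen at 30 μM; parthenolide positive control. IC50s derived from follow-up analysis.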

SMILES | IC50 [1] | IC50 [2] | IC50 [3] | IC50 [4] | IC50 [5] | IC50 [6] | IC50 [7] | IC50 [8] | IC50 [9]
COCCn1c2c(c(=O)c3ccccc31)C(=O)n1cccc1-2 [Compound 652a, 4-(2-Methoxyethyl)-9H-pyrrolizino[1,2-b]quinoline-9,10(4H)-dione] | 0.05 to 5 mM | 1 to 10 µM | 0.05 to 5 mM | 0.05 to 5 mM | 0.05 to 5 mM | 0.05 to 5 mM | 0.05 to 5 mM | 0.05 to 5 mM | 1 to 10 µM
O=C1c2c(nc3ccccc3c2OCc2c(F)c(F)c(F)c(F)c2F)-c2cccn21 [Compound 586b, 9-((perfluorophenyl)methoxy)-10H-pyrrolizino[1,2-b]quinolin-10-one] | 0.05 to 5 mM | 1 to 10 µM | 0.05 to 5 mM | 0.05 to 5 mM | 0.05 to 5 mM | 0.05 to 5 mM | 0.05 to 5 mM | 0.05 to 5 mM | 1 to 10 µM
COc1cccc2[nH]c3c(c(=O)c12)C(=O)n1cccc1-3 [Compound 473a, 8-Methoxy-9H-pyrrolizino[1,2-b]quinoline-9,10(4H)-dione] | 0.05 to 5 mM | 1 to 10 µM | 0.05 to 5 mM | 0.05 to 5 mM | 0.05 to 5 mM | 0.05 to 5 mM | < 0.05 mM | 0.05 to 5 mM | 1 to 10 µM
O=C1c2c(nc3cccc(Cl)c3c2OCc2ccc(Cl)cc2)-c2cccn21 [Compound 477b, 8-chloro-9-((4-chlorobenzyl)oxy)-10H-pyrrolizino[1,2-b]quinolin-10-one] | 0.05 to 5 mM | 1 to 10 µM | 0.05 to 5 mM | 0.05 to 5 mM | 0.05 to 5 mM | 0.05 to 5 mM | 0.05 to 5 mM | 0.05 to 5 mM | 10 to 50 µM
COc1cccc2c(=O)c3c([nH]c12)-c1cccn1C3=O [Compound 446a, 5-Methoxy-9H-pyrrolizino[1,2-b]quinoline-9,10(4H)-dione] | 0.05 to 5 mM | 1 to 10 µM | 0.05 to 5 mM | 0.05 to 5 mM | 0.05 to 5 mM | 0.05 to 5 mM | 0.05 to 5 mM | 0.05 to 5 mM | 0.1 to 1 µM
CS(=O)(=O)Oc1c2c(nc3ccccc13)-c1cccn1C2=O [Compound 650b, 10-oxo-10H-pyrrolizino[1,2-b]quinolin-9-yl methanesulfonate] | 0.05 to 5 mM | 1 to 10 µM | 0.05 to 5 mM | 0.05 to 5 mM | 0.05 to 5 mM | 0.05 to 5 mM | 0.05 to 5 mM | 0.05 to 5 mM | 1 to 10 µM
O=C1c2c(nc3ccccc3c2OCc2ccc(Cl)cc2F)-c2cccn21 [Compound 602b, 9-((4-chloro-2-fluorobenzyl)oxy)-10H-pyrrolizino[1,2-b]quinolin-10-one] | 0.05 to 5 mM | 1 to 10 µM | 0.05 to 5 mM | 0.05 to 5 mM | 0.05 to 5 mM | 0.05 to 5 mM | 0.05 to 5 mM | 0.05 to 5 mM | 1 to 10 µM
O=C(O)Cn1c2c(c(=O)c3ccccc31)C(=O)n1cccc1-2 [Compound 100a, 2-(9,10-Dioxo-9H-pyrrolizino[1,2-b]quinolin-4(10H)-yl)acetic acid] | 0.05 to 5 mM | 0.1 to 1 µM | 0.05 to 5 mM | < 0.05 mM | 0.05 to 5 mM | 0.05 to 5 mM | 0.05 to 5 mM | 0.05 to 5 mM | 1 to 10 µM
O=C1c2c(nc3ccccc3c2OCc2ccc(F)c(F)c2)-c2cccn21 [Compound 601b, 9-((3,4-difluorobenzyl)oxy)-10H-pyrrolizino[1,2-b]quinolin-10-one] | 0.05 to 5 mM | 1 to 10 µM | 0.05 to 5 mM | 0.05 to 5 mM | 0.05 to 5 mM | 0.05 to 5 mM | 0.05 to 5 mM | 0.05 to 5 mM | 1 to 10 µM
Cc1cccc(COc2c3c(nc4ccccc24)-c2cccn2C3=O)c1 [Compound 609b, 9-((3-methylbenzyl)oxy)-10H-pyrrolizino[1,2-b]quinolin-10-one] | 0.05 to 5 mM | 1 to 10 µM | 0.05 to 5 mM | 0.05 to 5 mM | 0.05 to 5 mM | 0.05 to 5 mM | 0.05 to 5 mM | 0.05 to 5 mM | 1 to 10 µM
